Data taken from patent US6914045B2, “Glycopeptide antibiotics” (Wyeth Holdings Corporation, priority 2001, dated 2005).
Values after ≈ are worked out from the molar mass of the structure shown. Each block holds one compound with its values, some of them ahead of it.

Tests used:
Assay in all cases: in vitro antibacterial evaluation, MIC by broth dilution
Format in all cases: cell-based
[1] = test system: Streptococcus sp.; conditions: broth dilution, 18 hours at 35° C.
Method: (§1) Methods for in vitro Antibacterial Evaluation (Table 1)
(§2) The minimum inhibitory concentration (MIC), the lowest concentration of the antibiotic which inhibits growth of the test organism, is determined by the broth dilution method using Muller-Hinton II […] (Baltimore Biological Laboratories) following the recommendations of the National Committee for Clinical Laboratory Standards [Methods for dilution antimicrobial susceptibility tests for bacteria that grow aerobically, approved standard M7-A2, National Committee for Clinical Laboratory Standards, Villanova, Pa.].
(§3) An inoculum level of 5×10^5 CFU/mL, and a range of antibiotic concentrations (64-0.06 μg/mL) is used. […] The test organisms include a spectrum of Gram-positive bacteria comprised of Staphylococcus sp., Streptococcus sp. and Enterococcus sp. These organisms include recent clinical isolates that are resistant to methicillin, penicillin and/or vancomycin.

[2] = test system: Enterococcus sp.; conditions: broth dilution, 18 hours at 35° C.
Method: as §1, §2, §3

[3] = test system: Staphylococcus sp.; conditions: broth dilution, 18 hours at 35° C.; for MIC Staphylococcus aureus (ATCC 29213): strain ATCC 29213; for MIC Staphylococcus aureus (GC 1131): strain GC 1131; for MIC Staphylococcus aureus (GC 3051): strain GC 3051; for MIC Staphylococcus aureus (GC 3053): strain GC 3053; for MIC Staphylococcus aureus (GC 4541): strain GC 4541; for MIC Staphylococcus aureus (GC 4542): strain GC 4542; for MIC Staphylococcus aureus-SMITH (GC 4543): strain GC 4543; for MIC Staphylococcus aureus (GC 4544): strain GC 4544; for MIC Staphylococcus aureus (GC 4545): strain GC 4545; for MIC Staphylococcus haemolyticus (GC 4546): strain GC 4546; for MIC Coagulase Negative Staphylococcus (GC 4547): strain GC 4547; for MIC Coagulase Negative Staphylococcus (GC 4548): strain GC 4548; for MIC Coagulase Negative Staphylococcus (GC 4549): strain GC 4549; for MIC Coagulase Negative Staphylococcus (GC 4551): strain GC 4551
Method: as §1, §2, §3

[4] = test system: Escherichia coli; conditions: 18 hours at 35° C.

MIC Streptococcus agalactiae (GC 4564) [1]: <0.12 µg/mL | MIC Streptococcus pneumoniae (ATCC 6301) [1]: <0.12 µg/mL | MIC Streptococcus pneumoniae (GC 1894) [1]: <0.12 µg/mL | MIC Streptococcus pneumoniae (GC 4565) [1]: <0.12 µg/mL | MIC Streptococcus pyogenes (GC 4563) [1]: <0.12 µg/mL | MIC Streptococcus pneumoniae (ATCC 6301) ([1]; inoculum 5×10^5 CFU/mL, strain ATCC 6301): <0.12 µg/mL | MIC Streptococcus pneumoniae (GC 1894) ([1]; inoculum 5×10^5 CFU/mL, strain GC 1894): <0.12 µg/mL | MIC Streptococcus pyogenes (GC 4563) ([1]; inoculum 5×10^5 CFU/mL, strain GC 4563): <0.12 µg/mL | MIC Streptococcus agalactiae (GC 4564) ([1]; inoculum 5×10^5 CFU/mL, strain GC 4564): <0.12 µg/mL | MIC Streptococcus pneumoniae (GC 4565) ([1]; inoculum 5×10^5 CFU/mL, strain GC 4565): <0.12 µg/mL | MIC Enterococcus avium (GC 4558) [2]: 0.5 µg/mL (≈ 0.35 µM) | MIC Enterococcus faecalis (ATCC 29212) [2]: 0.5 µg/mL (≈ 0.35 µM) | MIC Enterococcus faecalis (GC 2242) [2]: 1 µg/mL (≈ 0.7 µM) | MIC Enterococcus faecalis (GC 2691) [2]: 1 µg/mL (≈ 0.7 µM) | MIC Enterococcus faecalis (GC 3059) [2]: 1 µg/mL (≈ 0.7 µM) | MIC Enterococcus faecalis (GC 4552) [2]: 1 µg/mL (≈ 0.7 µM) | MIC Enterococcus faecalis (GC 4553) [2]: 0.5 µg/mL (≈ 0.35 µM) | MIC Enterococcus faecalis (GC 4554) [2]: 1 µg/mL (≈ 0.7 µM) | MIC Enterococcus faecalis (GC 6189) [2]: 1 µg/mL (≈ 0.7 µM) | MIC Enterococcus faecium (GC 2243) [2]: 0.5 µg/mL (≈ 0.35 µM) | MIC Enterococcus faecium (GC 4556) [2]: 1 µg/mL (≈ 0.7 µM) | MIC Enterococcus faecium (GC 4557) [2]: 0.5 µg/mL (≈ 0.35 µM) | MIC Enterococcus faecalis (ATCC 29212) ([2]; inoculum 5×10^5 CFU/mL, strain ATCC 29212): 0.5 µg/mL (≈ 0.35 µM) | MIC Enterococcus faecalis (GC 2242) ([2]; inoculum 5×10^5 CFU/mL, strain GC 2242): 1 µg/mL (≈ 0.7 µM) | MIC Enterococcus faecium (GC 2243) ([2]; inoculum 5×10^5 CFU/mL, strain GC 2243): 0.5 µg/mL (≈ 0.35 µM) | MIC Enterococcus faecalis (GC 2691) ([2]; inoculum 5×10^5 CFU/mL, strain GC 2691): 1 µg/mL (≈ 0.7 µM) | MIC Enterococcus faecalis (GC 3059) ([2]; inoculum 5×10^5 CFU/mL, strain GC 3059): 1 µg/mL (≈ 0.7 µM) | MIC Enterococcus faecalis (GC 4552) ([2]; inoculum 5×10^5 CFU/mL, strain GC 4552): 1 µg/mL (≈ 0.7 µM) | MIC Enterococcus faecalis (GC 4553) ([2]; inoculum 5×10^5 CFU/mL, strain GC 4553): 0.5 µg/mL (≈ 0.35 µM) | MIC Enterococcus faecalis (GC 4554) ([2]; inoculum 5×10^5 CFU/mL, strain GC 4554): 1 µg/mL (≈ 0.7 µM) | MIC Enterococcus faecium (GC 4556) ([2]; inoculum 5×10^5 CFU/mL, strain GC 4556): 1 µg/mL (≈ 0.7 µM) | MIC Enterococcus faecium (GC 4557) ([2]; inoculum 5×10^5 CFU/mL, strain GC 4557): 0.5 µg/mL (≈ 0.35 µM) | MIC Enterococcus avium (GC 4558) ([2]; inoculum 5×10^5 CFU/mL, strain GC 4558): 0.5 µg/mL (≈ 0.35 µM) | MIC Enterococcus faecalis (GC 6189) ([2]; inoculum 5×10^5 CFU/mL, strain GC 6189): 1 µg/mL (≈ 0.7 µM) | MIC Staphylococcus aureus (ATCC 29213) [3]: 0.5 µg/mL (≈ 0.35 µM) | MIC Staphylococcus aureus (GC 1131) [3]: 0.5 µg/mL (≈ 0.35 µM) | MIC Staphylococcus aureus (GC 3051) [3]: 0.5 µg/mL (≈ 0.35 µM) | MIC Staphylococcus aureus (GC 3053) [3]: 1 µg/mL (≈ 0.7 µM) | MIC Staphylococcus aureus (GC 4541) [3]: 0.5 µg/mL (≈ 0.35 µM) | MIC Staphylococcus aureus (GC 4542) [3]: 0.5 µg/mL (≈ 0.35 µM) | MIC Staphylococcus aureus-SMITH (GC 4543) [3]: <0.12 µg/mL | MIC Staphylococcus aureus (GC 4544) [3]: 0.5 µg/mL (≈ 0.35 µM) | MIC Staphylococcus aureus (GC 4545) [3]: 1 µg/mL (≈ 0.7 µM) | MIC Coagulase Negative Staphylococcus (GC 4547) [3]: 0.5 µg/mL (≈ 0.35 µM) | MIC Coagulase Negative Staphylococcus (GC 4548) [3]: 0.5 µg/mL (≈ 0.35 µM) | MIC Coagulase Negative Staphylococcus (GC 4549) [3]: <0.12 µg/mL | MIC Coagulase Negative Staphylococcus (GC 4551) [3]: 0.5 µg/mL (≈ 0.35 µM) | MIC Escherichia coli (ATCC 25922) [4]: 32 µg/mL (≈ 22.4 µM) | MIC Escherichia coli (GC 4559) [4]: 32 µg/mL (≈ 22.4 µM) | MIC Escherichia coli (GC 4560) [4]: 1 µg/mL (≈ 0.7 µM)
Compound: CC(c1ccccc1)C1NC(=O)CNC(=O)C(CO)NC(=O)C(C(O)C2CNC(=N)N2C2OC(CO)C(O)C(O)C2O)NC(=O)C(C(O)C2CNC(=N)N2)NC(=O)C(Cc2ccc(OC3OC(CO)C(OC4OC5COC6(CC7CCC6(C)C7(C)C)OC5C(O)C4O)C(O)C3O)cc2)NC1=O (centres unmarked) [Example 215]
MIC Staphylococcus haemolyticus (GC 4546) [3]: 0.5 µg/mL (≈ 0.35 µM)

MIC Streptococcus pneumoniae (ATCC 6301) ([1]; strain ATCC 6301): 16 µg/mL (≈ 13.9 µM) | MIC Streptococcus pneumoniae (GC 1894) ([1]; strain GC 1894): 32 µg/mL (≈ 27.8 µM) | MIC Streptococcus pyogenes (GC 4563) ([1]; strain GC 4563): 8 µg/mL (≈ 6.95 µM) | MIC Streptococcus agalactiae (GC 4564) ([1]; strain GC 4564): 32 µg/mL (≈ 27.8 µM) | MIC Streptococcus pneumoniae (GC 4565) ([1]; strain GC 4565): 16 µg/mL (≈ 13.9 µM) | MIC Enterococcus faecalis (ATCC 29212) ([2]; strain ATCC 29212): 32 µg/mL (≈ 27.8 µM) | MIC Enterococcus faecalis (GC 2242) ([2]; strain GC 2242): 32 µg/mL (≈ 27.8 µM) | MIC Enterococcus faecium (GC 2243) ([2]; strain GC 2243): 32 µg/mL (≈ 27.8 µM) | MIC Enterococcus faecalis (GC 2691) ([2]; strain GC 2691): 32 µg/mL (≈ 27.8 µM) | MIC Enterococcus faecalis (GC 3059) ([2]; strain GC 3059): 32 µg/mL (≈ 27.8 µM) | MIC Enterococcus faecalis (GC 4552) ([2]; strain GC 4552): 64 µg/mL (≈ 55.6 µM) | MIC Enterococcus faecalis (GC 4553) ([2]; strain GC 4553): 16 µg/mL (≈ 13.9 µM) | MIC Enterococcus faecalis (GC 4554) ([2]; strain GC 4554): 32 µg/mL (≈ 27.8 µM) | MIC Enterococcus faecium (GC 4556) ([2]; strain GC 4556): 64 µg/mL (≈ 55.6 µM) | MIC Enterococcus faecium (GC 4557) ([2]; strain GC 4557): 8 µg/mL (≈ 6.95 µM) | MIC Enterococcus avium (GC 4558) ([2]; strain GC 4558): 16 µg/mL (≈ 13.9 µM) | MIC Enterococcus faecalis (GC 6189) ([2]; strain GC 6189): 32 µg/mL (≈ 27.8 µM) | MIC Staphylococcus aureus (ATCC 29213) [3]: 8 µg/mL (≈ 6.95 µM) | MIC Staphylococcus aureus (GC 1131) [3]: 16 µg/mL (≈ 13.9 µM) | MIC Staphylococcus aureus (GC 3051) [3]: 16 µg/mL (≈ 13.9 µM) | MIC Staphylococcus aureus (GC 3053) [3]: 8 µg/mL (≈ 6.95 µM) | MIC Staphylococcus aureus (GC 4541) [3]: 16 µg/mL (≈ 13.9 µM) | MIC Staphylococcus aureus (GC 4542) [3]: 8 µg/mL (≈ 6.95 µM) | MIC Staphylococcus aureus-SMITH (GC 4543) [3]: 8 µg/mL (≈ 6.95 µM) | MIC Staphylococcus aureus (GC 4544) [3]: 8 µg/mL (≈ 6.95 µM) | MIC Staphylococcus aureus (GC 4545) [3]: 8 µg/mL (≈ 6.95 µM) | MIC Coagulase Negative Staphylococcus (GC 4547) [3]: 8 µg/mL (≈ 6.95 µM) | MIC Coagulase Negative Staphylococcus (GC 4548) [3]: 8 µg/mL (≈ 6.95 µM) | MIC Coagulase Negative Staphylococcus (GC 4549) [3]: 8 µg/mL (≈ 6.95 µM) | MIC Coagulase Negative Staphylococcus (GC 4551) [3]: 8 µg/mL (≈ 6.95 µM) | MIC Coagulase Negative Staphylococcus (GC 6257) ([3]; strain GC 6257): 4 µg/mL (≈ 3.48 µM) | MIC Escherichia coli (ATCC 25922) ([4]; strain ATCC 25922, broth dilution): 32 µg/mL (≈ 27.8 µM) | MIC Escherichia coli (GC 4559) ([4]; strain GC 4559, broth dilution): 32 µg/mL (≈ 27.8 µM) | MIC Escherichia coli (GC 4560) ([4]; strain GC 4560, broth dilution): 8 µg/mL (≈ 6.95 µM)
Compound: CC(c1ccccc1)C1NC(=O)CNC(=O)C(CO)NC(=O)C(C(O)C2CNC(=N)N2C2OC(CO)C(O)C(O)C2O)NC(=O)C(C(O)C2CNC(=N)N2)NC(=O)C(Cc2ccc3oc(-c4ccc(Br)cc4)nc3c2)NC1=O (stereo not drawn) [Example 27, Cyclo[3-[2-(4-bromophenyl)-1,3-benzoxazol-5-yl]alanyl-3-(2-iminoimidazolidin-4-yl)seryl-3-(3-hexopyranosyl-2-iminoimidazolidin-4-yl)serylserylglycyl-β-methylphenylalanyl]]
MIC Staphylococcus haemolyticus (GC 4546) [3]: 4 µg/mL (≈ 3.48 µM)
